Assay results published in US20120225062A1 (priority 2011, published 2012).

Test system: KMS11 (human myeloma cell line)
Experiment: Cell Proliferation Assay (CellTiter-Glo, 3 days)
Type: cell-based
Conditions: KMS-11, 72 h, KMS11-luc cells
Experimental: KMS11 (human myeloma cell line), were cultured in IMDM supplemented with 10% FBS, sodium pyruvate and antibiotics. Cells were plated in the same medium at a density of 2000 cells per well into 96 well tissue culture plates, with outside wells vacant, on the day of assay.
Test compounds supplied in DMSO were diluted into DMSO at 500 times the desired final concentrations before dilution into culture media to 2 times final concentrations. Equal volumes of 2× compounds were added to the cells in 96 well plates and incubated at 37° C. for 3 days.
After 3 days plates were equilibrated to room temperature and equal volume of CellTiter-Glow Reagent (Promega) was added to the culture wells. The plates were agitated briefly and luminescent signal was measured with luminometer.
Using the procedures of Cell Proliferation Assay, the EC50 concentrations of compounds of the examples were determined in KMS11 cells as shown in Table 4.

Which EC50 does the source give for C[C@H]1C[C@@H](c2ccncc2NC(=O)c2ccc(F)c(-c3c(F)cc(C4(O)CCOCC4)cc3F)n2)C[C@@H](N)[C@@H]1O [Example 122, N-(4-((1R,3R,4R,5S)-3-amino-4-hydroxy-5-methylcyclohexyl)pyridin-3-yl)-6-(2,6-difluoro-4-(4-hydroxytetrahydro-2H-pyran-4-yl)phenyl)-5-fluoropicolinamide] here?
The EC50 was 83 nM.

Which EC50 does the source give for C[C@@H]1C[C@H](N)C[C@H](c2ccncc2NC(=O)c2ccc(F)c(-c3c(F)cc([C@@H](C)O)cc3F)n2)C1 [Example 74, N-(4-((1R,3S,5S)-3-amino-5-methylcyclohexyl)pyridin-3-yl)-6-(2,6-difluoro-4-((R)-1-hydroxyethyl)phenyl)-5-fluoropicolinamide] here?
The EC50 was 15 nM.

With N[C@H]1CCC[C@@H](c2ccncc2NC(=O)c2ccc(F)c(-c3c(F)cc(C4(O)CCCC4)cc3F)n2)C1 [Example 162, N-(4-((1R,3S)-3-aminocyclohexyl)pyridin-3-yl)-6-(2,6-difluoro-4-(1-hydroxycyclopentyl)phenyl)-5-fluoropicolinamide] as the compound, how does the EC50 read?
The EC50 was 122 nM.

CCc1cc(F)c(-c2nc(C(=O)Nc3cnccc3[C@@H]3C[C@H](C)C[C@H](N)C3)ccc2F)c(F)c1 [Example 230, N-(4-((1R,3S,5S)-3-amino-5-methylcyclohexyl)pyridin-3-yl)-6-(4-ethyl-2,6-difluorophenyl)-5-fluoropicolinamide] was tested. Which EC50 did it give?
Its EC50 is 62 nM.

Which EC50 does the source give for C[C@H]1C[C@@H](c2ccncc2NC(=O)c2ccc(F)c(-c3c(F)cc([S@+](C)[O-])cc3F)n2)C[C@@H](N)[C@@H]1O [Example 27, N-(4-((1R,3R,4R,5S)-3-amino-4-hydroxy-5-methylcyclohexyl)pyridin-3-yl)-6-(2,6-difluoro-4-((S)-methylsulfinyl)phenyl)-5-fluoropicolinamide] here?
Its EC50 is 90 nM.

For COc1cc(F)c(-c2nc(C(=O)Nc3cnccc3[C@@H]3C[C@H](C)C[C@H](N)C3)ccc2F)c(F)c1 [Example 11, N-(4-((1R,3S,5S)-3-amino-5-methylcyclohexyl)pyridin-3-yl)-6-(2,6-difluoro-4-methoxyphenyl)-5-fluoropicolinamide], which EC50 is on record?
The EC50 was 71 nM.

For C[C@H]1C[C@@H](c2ccncc2NC(=O)c2ccc(F)c(-c3c(F)cc(C4COC4)cc3F)n2)C[C@@H](N)[C@@H]1O [Example 56, N-(4-((1R,3R,4R,5S)-3-amino-4-hydroxy-5-methylcyclohexyl)pyridin-3-yl)-6-(2,6-difluoro-4-(oxetan-3-yl)phenyl)-5-fluoropicolinamide], which EC50 is on record?
The EC50 was 31 nM.

C[C@@H]1C[C@H](N)C[C@H](c2ccncc2NC(=O)c2ccc(F)c(-c3c(F)cc(C4(O)CCOCC4)cc3F)n2)C1 [Example 121, N-(4-((1R,3S,5S)-3-amino-5-methylcyclohexyl)pyridin-3-yl)-6-(2,6-difluoro-4-(4-hydroxytetrahydro-2H-pyran-4-yl)phenyl)-5-fluoropicolinamide] was tested. Which EC50 did it give?
Its EC50 is 27 nM.

For C[C@@H]1C[C@H](N)C[C@H](c2ccncc2NC(=O)c2ccc(F)c(-c3c(F)cc(Cl)cc3F)n2)C1 [Example 208, N-(4-((1R,3S,5S)-3-amino-5-methylcyclohexyl)pyridin-3-yl)-6-(4-chloro-2,6-difluorophenyl)-5-fluoropicolinamide], which EC50 is on record?
Its EC50 is 363 nM.

For C[C@H]1C[C@@H](c2ccncc2NC(=O)c2ccc(F)c(-c3c(F)cc(C4(C#N)CCOCC4)cc3F)n2)C[C@@H](N)[C@@H]1O [Example 171, N-(4-((1R,3R,4R,5S)-3-amino-4-hydroxy-5-methylcyclohexyl)pyridin-3-yl)-6-(4-(4-cyanotetrahydro-2H-pyran-4-yl)-2,6-difluorophenyl)-5-fluoropicolinamide], which EC50 is on record?
Its EC50 is 77 nM.

C[C@@H]1C[C@H](N)C[C@H](c2ccncc2NC(=O)c2ccc(F)c(-c3c(F)cc(CO)cc3F)n2)C1 [Example 224, N-(4-((1R,3S,5S)-3-amino-5-methylcyclohexyl)pyridin-3-yl)-6-(2,6-difluoro-4-(hydroxymethyl)phenyl)-5-fluoropicolinamide] was tested. Which EC50 did it give?
The EC50 was 64 nM.

With CSc1cc(F)c(-c2nc(C(=O)Nc3cnccc3[C@@H]3C[C@H](C)C[C@H](N)C3)ccc2F)c(F)c1 [Example 223, N-(4-((1R,3S,5S)-3-amino-5-methylcyclohexyl)pyridin-3-yl)-6-(2,6-difluoro-4-(methylthio)phenyl)-5-fluoropicolinamide] as the compound, how does the EC50 read?
Its EC50 is 169 nM.

With N[C@H]1CCC[C@@H](c2ccncc2NC(=O)c2ccc(F)c(-c3c(F)cc(C4CCOCC4)cc3F)n2)C1 [Example 156, N-(4-((1R,3S)-3-aminocyclohexyl)pyridin-3-yl)-6-(2,6-difluoro-4-(tetrahydro-2H-pyran-4-yl)phenyl)-5-fluoropicolinamide] as the compound, how does the EC50 read?
The EC50 was 436 nM.

How did the EC50 turn out when CCOCc1cc(F)c(-c2nc(C(=O)Nc3cnccc3[C@@H]3CCC[C@H](N)C3)ccc2F)c(F)c1 [Example 152, N-(4-((1R,3S)-3-aminocyclohexyl)pyridin-3-yl)-6-(4-(ethoxymethyl)-2,6-difluorophenyl)-5-fluoropicolinamide] was run?
The EC50 was 211 nM.

How did the EC50 turn out when C[C@@H]1C[C@H](N)C[C@H](c2ccncc2NC(=O)c2ccc(F)c(-c3c(F)cc(C(F)F)cc3F)n2)C1 [Example 57, N-(4-((1R,3S,5S)-3-amino-5-methylcyclohexyl)pyridin-3-yl)-6-(4-(difluoromethyl)-2,6-difluorophenyl)-5-fluoropicolinamide] was run?
Its EC50 is 42 nM.

With Cc1cc(F)c(-c2nc(C(=O)Nc3cnccc3[C@@H]3C[C@H](C)C[C@H](N)C3)ccc2F)c(F)c1 [Example 8, N-(4-((1R,3S,5S)-3-amino-5-methylcyclohexyl)pyridin-3-yl)-6-(2,6-difluoro-4-methylphenyl)-5-fluoropicolinamide] as the compound, how does the EC50 read?
The EC50 was 46 nM.

How did the EC50 turn out when C[C@H]1C[C@@H](c2ccncc2NC(=O)c2ccc(F)c(-c3c(F)cc([S@@+](C)[O-])cc3F)n2)C[C@@H](N)[C@@H]1O [Example 28] was run?
Its EC50 is 3880 nM.

With C[C@@H]1C[C@H](N)C[C@H](c2ccncc2NC(=O)c2ccc(F)c(-c3c(F)cc(F)cc3F)n2)C1 [Example 209, N-(4-((1R,3S,5S)-3-amino-5-methylcyclohexyl)pyridin-3-yl)-5-fluoro-6-(2,4,6-trifluorophenyl)picolinamide] as the compound, how does the EC50 read?
Its EC50 is 262 nM.

For Cc1cc(F)c(-c2nc(C(=O)Nc3cnccc3[C@H]3C[C@@H](N)[C@H](O)[C@@H](C)C3)ccc2F)c(F)c1 [Example 4, N-(4-((1R,3R,4R,5S)-3-amino-4-hydroxy-5-methylcyclohexyl)pyridin-3-yl)-6-(2,6-difluoro-4-methylphenyl)-5-fluoropicolinamide], which EC50 is on record?
The EC50 was 70 nM.

How did the EC50 turn out when C[C@H]1C[C@@H](c2ccncc2NC(=O)c2ccc(F)c(-c3c(F)cc(C4CC4)cc3F)n2)C[C@@H](N)[C@@H]1O [Example 72, N-(4-((1R,3R,4R,5S)-3-amino-4-hydroxy-5-methylcyclohexyl)pyridin-3-yl)-6-(4-cyclopropyl-2,6-difluorophenyl)-5-fluoropicolinamide] was run?
The EC50 was 139 nM.

With CCc1cc(F)c(-c2nc(C(=O)Nc3cnccc3[C@H]3C[C@@H](N)[C@H](O)[C@@H](C)C3)ccc2F)c(F)c1 [Example 39, N-(4-((1R,3R,4R,5S)-3-amino-4-hydroxy-5-methylcyclohexyl)pyridin-3-yl)-6-(4-ethyl-2,6-difluorophenyl)-5-fluoropicolinamide] as the compound, how does the EC50 read?
The EC50 was 55 nM.
